Test results from patent publication US11873298B2, “Compounds and uses thereof” (JANSSEN PHARMACEUTICA NV, priority 2017, dated 2024).
“And” between values parts separate entries of the source, which are not always exact repeats. Equal values may be shown once.

Assays:
Type in all cases: cell-based
[1] = target: T1, Ole1 (Saccharomyces cerevisiae, UniProt P21147); test: Growth inhibition of yeast strain expressing Ole1 as sole desaturase; settings: yeast strain expressing Ole1 as sole desaturase
T1 construct: expressed in transfected cells; host or cells: S. cerevisiae ole1Δ strain (W303 pdr1Δ pdr3Δ background), plasmid pRS316 with TDH3 promoter and CYC1 terminator
T1 sequence (P21147 1-510): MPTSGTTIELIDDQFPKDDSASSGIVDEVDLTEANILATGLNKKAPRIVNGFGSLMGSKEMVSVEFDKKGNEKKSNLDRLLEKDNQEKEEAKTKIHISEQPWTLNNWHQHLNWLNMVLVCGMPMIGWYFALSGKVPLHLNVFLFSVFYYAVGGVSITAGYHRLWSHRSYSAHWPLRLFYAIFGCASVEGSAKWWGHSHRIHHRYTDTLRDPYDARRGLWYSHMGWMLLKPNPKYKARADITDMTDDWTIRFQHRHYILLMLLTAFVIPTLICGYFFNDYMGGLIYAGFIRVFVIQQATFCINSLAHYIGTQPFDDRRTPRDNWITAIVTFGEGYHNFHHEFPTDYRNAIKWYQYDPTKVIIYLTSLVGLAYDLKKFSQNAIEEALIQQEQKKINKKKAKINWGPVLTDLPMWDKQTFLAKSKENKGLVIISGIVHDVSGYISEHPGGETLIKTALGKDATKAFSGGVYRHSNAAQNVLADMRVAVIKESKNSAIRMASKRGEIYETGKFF
Protocol: Strain oleΔ (yeast ole1 deletion mutant) was constructed by deleting OLE1 with NAT-MX6 in BY4741, amplifying the deletion cassette from the genomic DNA of the resulting strain with primers flanking the ORF by 1000 bp upstream and downstream, transforming the resulting deletion cassette into W303 pdr1Δ pdr3Δ, and plating transformants on YPD media containing G418 (200 μg/mL) and nourseothricin ([…]) with 0.01% TWEEN®-20 and 0.5 mM oleic and palmitoleic acids.
The coding sequence of yeast OLE1 was also cloned into this plasmid). These clones were then transformed into the ole1Δ strain and plated on CSM-Ura media (CSM lacking uracil) with 2% glucose (w/v) and independent colonies were isolated and amplified.
All compound profiling experiments were performed using the same basic protocol. Different genetic backgrounds (e.g., gene deletions) or conditions (e.g., addition of oleic and palmitoleic acid) were replaced as indicated below.
Yeast were cultured using standard techniques in complete synthetic media (CSM) and yeast nitrogen base supplemented with 2% (w/v) carbon source (glucose, raffinose, or galactose) to regulate the expression of the toxic disease protein. An initial starter culture was inoculated in 3 mL CSM-Glucose media and incubated overnight in a 30° C. shaker incubator (225 rpm). Saturated morning cultures were then diluted 1:20 in fresh CSM-Raffinose media and grown for 6 h to an OD600 (optical density) of ˜0.4-0.8 at 30° C. with shaking.
Compound administration was performed in two separate steps. First, 15 μL of CSM-Galactose (induces expression of toxic protein) was dispensed into clear 384 well assay plates using a MULTIDROP™ Combi reagent dispenser. […] The cultures described above were then diluted to a 2× concentration (0.03 and 0.08 for alpha-synuclein and ApoE, final ODsoo of 0.015 and 0.04) in CSM-Galactose. For wild-type and Ole1/SCD1/SCD5 plasmid-containing strains, the 2× cell density was 0.02. […] For 96-well assays (FIGS. 1A and 1B), compound dilutions in DMSO were generated in 96 well plates and 1 μL was manually pipetted into 96 well clear bottom assay plates.
For experiments using a plasmid-borne copy of Ole1, SCD1, or SCD5 (FIGS. 3B, 6, and 7), media lacking uracil (SX-Ura, where X is glucose, raffinose, or galactose), was used for all steps of the compound profiling protocol to ensure its maintenance throughout the assay.
After yeast delivery, assay plates were incubated under humidified conditions at 30° C. for 24 to 40 h. ApoE4 rescue experiments were stopped at 24 h, aSyn experiments at 40 h, Ole1 at 24 h, and SCD1/SCD5 at 40 h. The growth of yeast was monitored by reading the ODsoo of each well using a microplate reader (Perkin Elmer EnVision™).

[2] = target: T2, SCD1 (Homo sapiens, UniProt O00767); test: Growth inhibition of humanized yeast strain expressing SCD1 as sole desaturase; settings: humanized yeast strain expressing SCD1
T2 construct: host or cells: S. cerevisiae ole1Δ strain (W303 pdr1Δ pdr3Δ background), plasmid pRS316 with TDH3 promoter and CYC1 terminator
T2 sequence (O00767 1-359): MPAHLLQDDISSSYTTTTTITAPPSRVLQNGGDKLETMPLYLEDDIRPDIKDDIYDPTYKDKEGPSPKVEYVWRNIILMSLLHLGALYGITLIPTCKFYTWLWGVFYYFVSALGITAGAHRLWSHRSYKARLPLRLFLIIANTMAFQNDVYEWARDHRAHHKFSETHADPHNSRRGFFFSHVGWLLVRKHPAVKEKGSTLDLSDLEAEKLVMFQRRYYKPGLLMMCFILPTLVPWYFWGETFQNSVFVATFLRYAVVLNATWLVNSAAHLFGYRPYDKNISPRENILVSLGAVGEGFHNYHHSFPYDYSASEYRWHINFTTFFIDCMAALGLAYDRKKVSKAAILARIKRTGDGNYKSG
Procedure, shortened: (§1)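 Plasmid-complemented ole1Δ yeast, drug-pump deleted (pdr1Δ pdr3Δ), depend solely on the introduced Ole1, SCD1 or SCD5 desaturase. Compounds are added from DMSO to cells in uracil-free galactose medium, 2× density 0.02, and OD600 is read after 24 h or 40 h respectively.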

[3] = target: T3, SCD5 (Homo sapiens, UniProt Q86SK9); test: Growth inhibition of humanized yeast strain expressing SCD5 as sole desaturase; settings: humanized yeast strain expressing SCD5
T3 construct: host or cells: S. cerevisiae ole1Δ strain (W303 pdr1Δ pdr3Δ background), plasmid pRS316 with TDH3 promoter and CYC1 terminator
T3 sequence (Q86SK9 1-330): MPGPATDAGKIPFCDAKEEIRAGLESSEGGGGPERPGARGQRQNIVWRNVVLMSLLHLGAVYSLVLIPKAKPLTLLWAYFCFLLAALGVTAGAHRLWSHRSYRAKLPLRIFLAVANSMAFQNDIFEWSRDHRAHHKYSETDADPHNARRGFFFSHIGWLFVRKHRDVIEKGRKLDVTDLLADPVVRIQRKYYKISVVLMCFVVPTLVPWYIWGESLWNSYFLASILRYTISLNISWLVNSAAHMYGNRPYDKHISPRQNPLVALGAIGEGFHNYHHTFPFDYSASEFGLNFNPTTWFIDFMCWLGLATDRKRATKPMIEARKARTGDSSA
Procedure, shortened: as §1

Row | Structure (SMILES) | IC50 [1] | OLE1 % Max Inhibition [1] | IC50 [2] | SCD1 % Max Inhibition [2] | IC50 [3] | SCD5 % Max Inhibition [3]
1 | CCOC(=O)C(C)(C)n1ncc2ccc(-c3noc(C4CCN(C(=O)C5CC(=O)N(c6ccccc6)C5)CC4)n3)cc21 (stereo not drawn) [Compound 196] | > 45 µM | 93.87% | > 45 µM | 86.58% | > 45 µM | 75.88%
2 | COc1ccc(-c2noc(CCNC(=O)COc3cc(O)c4c(c3)OC(C)(C)CC4=O)n2)cc1OC [Compound 486] | > 45 µM | 103.51% |  | 76.95% | > 45 µM | 72.76%
3 | CCOc1ccc(-c2noc(C3CCN(C(=O)CN4Cc5ccc(F)cc5C4=O)CC3)n2)cc1OC [Compound 177] | > 45 µM | 40.70% | > 45 µM | 97.88% | > 45 µM | 86.13%
4 | Cc1nn(C)c2cc(-c3noc(C4CCN(C(=O)[C@H]5CC(=O)N(c6ccccc6)C5)C(C)C4)n3)ccc12 (stereo partly drawn) [Compound 240] | > 45 µM | 4.30% | > 45 µM | 66.85% | > 45 µM | 12.95%
5 | O=C(C1CC(=O)N(c2cccc(Cl)c2)C1)N1CCC(c2nc(Cl)no2)CC1 (stereo not drawn) [Compound 348] | > 45 µM | 74.78% |  |  |  | 59.2%
6 | O=C([C@H]1CC(=O)N(c2ccccc2)C1)N1CCC(c2nc(-c3ccc(Br)s3)no2)CC1 [Compound 248] | > 45 µM | 73.12% |  | 3.09% | > 45 µM | 13.59%
7 | COc1ccc(-c2noc(C3CCN(C(=O)CNCc4ccccc4)CC3)n2)cc1OC [Compound 30] | > 45 µM | 100.46% | > 45 µM | 80.58% | > 45 µM | 74.17%
8 | Cc1nn(C)c2cc(-c3noc(C4CCN(C(=O)CNC(=O)c5ccccc5)CC4(F)F)n3)ccc12 (stereo not drawn) [Compound 244] | > 45 µM | 3.34% and 1.29% | > 45 µM | 15.54% and 8.51% | > 45 µM | 2.85% and 2.47%
9 | Cn1ncc2c1CN(c1noc(C3CCN(C(=O)C4CC(=O)N(c5ccccc5)C4)CC3)n1)CC2 (stereo not drawn) [Compound 243] | > 45 µM | 94.60% | > 45 µM | 94.50% | > 45 µM | 72.11%
10 | Cc1ccc(N2CC(C(=O)N3CCC(c4nc(-c5ccc6c(C)nn(C)c6c5)no4)CC3)CC2=O)cn1 (stereo not drawn) [Compound 179] | 38.7 µM | 76.70% | > 45 µM | 106.53% | > 45 µM | 85.02%
11 | CC(C)n1ncc2ccc(-c3noc(C4CCN(C(=O)c5ccccc5Cl)CC4)n3)cc21 [Compound 345] | > 45 µM | 6.63% |  |  | > 45 µM | 2.2%
12 | CC(C)n1ncc2ccc(-c3noc(C4CCN(C(=O)c5ccccc5)CC4)n3)cc21 [Compound 346] | > 45 µM | 12.12% |  |  | > 45 µM | 1.1%
